# Measurements from patent publication US8198335B2, “Cosmetic material” (Parahermosa Co., Ltd., priority 2009, dated 2012).
# Assay: Check for precipitation of crystal in 1:1 mixtures of oil solution and diethyl amino hydroxy benzoyl hexyl benzoate kept at 5° C.
# Type: physicochemical
# Parameters: key to Evaluation results 1 week / Evaluation results Following day / Evaluation results Same day: X: Evaluation results accompanied by an x in Table 2 indicate that crystal had precipitated at the applicable point in time
# Details: 1:1 by mass with diethyl amino hydroxy benzoyl hexyl benzoate, heated to 80° C., cooled, kept at 5° C.; checked after half a day
# From the text: Evaluation results accompanied by an x in Table 2 indicate that crystal had precipitated at the applicable point in time.
row,Molecule,Evaluation results Same day
1,"CC(C)CCCC(C)CCCC(C)CCCCC(C)CCCC(C)CCCC(C)C (centres unmarked) [Component 26, Squalane]",X
2,"OCC(O)CO [Component 31, Glycerin]",X
3,"CCCCCCCCCCCCCCCC(=O)OC(C)C [Component 33, Isopropyl palmitate]",X
4,"CCCCCCCCCCCCCC(=O)OCC(CCCCCCCC)CCCCCCCCCC (centres unmarked) [Component 34, Octyl dodecyl myristate]",X
5,"CCCCCCCC(=O)OCC(C)(C)COC(=O)CCCCCCC [Component 53, Neopentyl glycol dicaprylate]",X
6,"CCCCCCCCOC(=O)OCCCCCCCC [Component 57, Dicapryl carbonate]",X
7,"COc1ccc(C(=O)c2ccccc2)c(O)c1 [Component 59, Benzophenone-3]",X
8,"CCCCCCCCCCCCCCCCCCO [Component 61, Stearyl alcohol]",X
9,Cyclomethicone [Component 64],X
10,DPG [Component 22],X

# Same assay, conditions: 1:1 by mass with diethyl amino hydroxy benzoyl hexyl benzoate, kept at 5° C.; checked after one day
row,Molecule,Evaluation results Following day
1,"CC(C)CCCCCCCCCCOC(=O)CCCCCC(C)C [Component 17, Isotridecyl isononanate]",X
2,"CCO [Component 18, Ethanol (99%)]",X
3,"CCCCCCCCCCCCCCCCOC(=O)C(CC)CCCC (centres unmarked) [Component 19, Cetyl ethyl hexanoate]",X
4,"CCCCCCCCCCCCCCCC(=O)OCC(CC)CCCC (centres unmarked) [Component 20, Ethyl hexyl palmitate]",X
5,"CCCCC(CC)C(=O)OCC(COC(=O)C(CC)CCCC)OC(=O)C(CC)CCCC (centres unmarked) [Component 21, Glycerin tri 2-ethyl hexanoate]",X
6,"CC(C)CCCCCCOC(=O)CCCCCC(C)C [Component 25, Isononyl isononanate]",X
7,"CCCCCCCCCCC(CO)CCCCCCCC (centres unmarked) [Component 29, Octyl dodecanol]",X
8,"CCCCCCCC(=O)OCC(C)OC(=O)CCCCCCC (centres unmarked) [Component 30, Propylene glycol dicaprylate]",X
9,"CC(O)CCO (centres unmarked) [Component 32, 1,3-BG]",X
10,"CCCCC(CC)C(=O)OCC(CC)(CO)COCC(CC)(COC(=O)C(CC)CCCC)COC(=O)C(CC)CCCC (centres unmarked) [Component 44, Ditrimethylol propane triethyl hexanoate]",X
11,"CC(C)CCCCCCCCCCCCCCCOC(=O)CC(O)C(=O)OCCCCCCCCCCCCCCCC(C)C (centres unmarked) [Component 47, Diisostearyl malate]",X
12,"CCCCC(CC)C(=O)OCC(COC(=O)C(CC)CCCC)OC(=O)C(CC)CCCC (centres unmarked) [Component 50, Triethyl hexanoin]",X
13,"CCCCC(CC)C(=O)OCC(C)(C)COC(=O)C(CC)CCCC (centres unmarked) [Component 51, Neopentyl glycol diethyl hexanoate]",X
14,"CCCCCCCCCCC(CCCCCCCC)COC(=O)C(C)O (centres unmarked) [Component 52, Octyl dodecyl lactate]",X
15,"CCCCCCCCOCCCCCCCC [Component 58, Dioctyl ether]",X
16,C12-15 alkyl benzoate [Component 62],X
17,DPG [Component 22],X
18,Diglyceryl tetraisostearate [Component 49],X
19,Ditrimethylol propane (isostearate/sebacate) [Component 46],X
20,Erythrityl triethyl hexanoate [Component 45],X
21,Glycerin tri (capryl/caprate) [Component 28],X
22,Sorbitan isostearate [Component 36],X
23,Sorbitan sesquioleate [Component 35],X

# Same assay, conditions: 1:1 by mass with diethyl amino hydroxy benzoyl hexyl benzoate, kept at 5° C.; checked after one week
row,Molecule,Evaluation results 1 week
1,"CCCCCCC(O)CCCCCCCCCCC(=O)OCC(CC)CCCC (centres unmarked) [Component 16, Octyl hydroxyl stearate (monomer)]",X
2,"CCCCC(CC)COC(=O)/C=C/c1ccc(OC)cc1 (centres unmarked) [Component 56, Ethyl hexyl para-methoxy cinnamate]",X

# Same assay, conditions: 1:1 by mass with diethyl amino hydroxy benzoyl hexyl benzoate, kept at 5° C.; checked after six months
row,Molecule,Evaluation results 6 months
1,Octyl hydroxyl stearate oligomer (dimmer) [Component 1],◯
2,Octyl hydroxyl stearate oligomer (heptamer) [Component 6],◯
3,Octyl hydroxyl stearate oligomer (hexamer) [Component 5],◯
4,Octyl hydroxyl stearate oligomer (pentamer) [Component 4],◯
5,Octyl hydroxyl stearate oligomer (tetramer) [Component 3],◯
6,Octyl hydroxyl stearate oligomer (trimer) [Component 2],◯

# Same assay, conditions: summary of Table 2, 5° C.
row,Molecule,"precipitation of crystal / stability of the 1:1 mixture, in words"
1,"CCCCCCC(O)CCCCCCCCCCC(=O)OCC(CC)CCCC (centres unmarked) [Component 16, Octyl hydroxyl stearate (monomer)]",crystal precipitated after one week

# Assay: Low-temperature behaviour of octyl hydroxy stearate monomer and oligomers (clouding point, liquid state)
# Type: physicochemical
# Details: not given
# From the text: A monomer of octyl hydroxy stearate has problems in terms of stable dissolution of poorly soluble substances, while an octamer and above lead to poor self-condensing property of 12-hydroxy stearate and result in a broad distribution of molecular weight, which in turn causes unstable quality, solidification at temperatures below zero, and undesirable touch and other tactile senstations. For example, a monomer of octyl hydroxy stearate is a low-viscosity oil which is non-sticky and has a clean touch and also offers excellent oxidization stability. However, its clouding point is high, or at approx. 20° C., and thus crystal generates in the solution or the entire formulation solidifies in winter, resulting in markedly lower feeling of use and other problems such as the formulation not coming out of the container due to an increased viscosity. An octamer has similar problems. A dimer of octyl hydroxy stearate is structurally a monomer with one more molecule unit. However, it has substantially different chemical properties.
row,Molecule,clouding point
1,"CCCCCCC(O)CCCCCCCCCCC(=O)OCC(CC)CCCC (centres unmarked) [Component 16, Octyl hydroxyl stearate (monomer)]",approx. 20 °C

# Same assay, conditions: 5° C.
row,Molecule,state at 5° C.
1,Octyl hydroxyl stearate oligomer (dimmer) [Component 1],remains permanently liquid

# Assay: not given
# Details: solvent 2-ethyl hexyl para-methoxy cinnamate; cited from earlier work
row,Molecule,dissolves in 2-ethyl hexyl para-methoxy cinnamate [%]
1,CCCCCCOC(=O)c1ccccc1C(=O)c1ccc(N(CC)CC)cc1O [diethyl amino hydroxy benzoyl hexyl benzoate],42

# Same assay, conditions: solvent cyclomethicone (volatile silicone); cited from earlier work
row,Molecule,dissolves in cyclomethicone [%]
1,CCCCCCOC(=O)c1ccccc1C(=O)c1ccc(N(CC)CC)cc1O [diethyl amino hydroxy benzoyl hexyl benzoate],0.4

# Same assay, conditions: solvent octyl para-methoxy cinnamate; cited from earlier work
row,Molecule,dissolves in octyl para-methoxy cinnamate
1,CCCCCCOC(=O)c1ccccc1C(=O)c1ccc(N(CC)CC)cc1O [diethyl amino hydroxy benzoyl hexyl benzoate],up to 42 percent by mass
